{"source": "patent US7435837B2", "about": "“Dihydrobenzofuranyl alkanamine derivatives and methods for using same” (Wyeth, priority 2003, dated 2008)"}
{"biological_target": "T1, human 5-hydroxytryptamine-2C (h5-HT2C) receptor (Homo sapiens, UniProt P28335)", "T1 construct": "expressed in transfected cells; host or cells: CHO (Chinese Hamster Ovary) cells; membranes", "T1 sequence (P28335 33-458)": "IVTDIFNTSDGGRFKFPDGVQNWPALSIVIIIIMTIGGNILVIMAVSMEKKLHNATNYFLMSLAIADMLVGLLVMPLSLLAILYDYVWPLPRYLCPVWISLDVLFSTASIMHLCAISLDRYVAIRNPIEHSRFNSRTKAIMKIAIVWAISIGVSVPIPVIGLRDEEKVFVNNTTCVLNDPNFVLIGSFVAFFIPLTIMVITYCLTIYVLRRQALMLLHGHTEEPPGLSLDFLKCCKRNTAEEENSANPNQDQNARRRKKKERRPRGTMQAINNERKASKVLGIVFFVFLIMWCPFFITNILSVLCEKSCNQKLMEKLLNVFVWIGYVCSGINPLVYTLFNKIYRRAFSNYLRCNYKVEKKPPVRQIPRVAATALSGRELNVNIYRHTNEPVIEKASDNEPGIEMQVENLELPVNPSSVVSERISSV", "assay": "[125I]DOI binding to membranes of CHO cells expressing the human 5-HT2C receptor", "details": "[125I]DOI radioligand, CHO cell membranes, room temperature 60 min; read-out: 5-HT2C Affinity Ki", "units": {"Ki": "µM"}}
{"smiles": "CC(C)(C)c1cccc2c1OC(CN)C2", "note": "(racemic) [Example 24, (±)-1-(7-tert-butyl-2,3-dihydro-1-benzofuran-2-yl)methanamine]", "Ki": 0.036}
{"smiles": "NCC1Cc2cccc(-c3ccccc3F)c2O1", "note": "(single isomer, unassigned; (+)) [Example 51, (+)-1-[7-(2-fluorophenyl)-2,3-dihydro-1-benzofuran-2-yl]methanamine]", "Ki": 0.001}
{"smiles": "CNCC1Cc2cc(C(F)(F)F)cc(-c3ccc(F)c(Cl)c3)c2O1", "note": "(racemic) [Example 525, (±)-{[7-(3-chloro-4-fluorophenyl)-5-(trifluoromethyl)-2,3-dihydro-1-benzofuran-2-yl]methyl}methylamine]", "Ki": 0.559}
{"smiles": "NCC1Cc2cccc(Nc3ccc(Cl)c(Cl)c3)c2O1", "note": "(racemic) [Example 179, (±)-N-[2-(aminomethyl)-2,3-dihydro-1-benzofuran-7-yl]-N-(3,4-dichlorophenyl)amine]", "Ki": 0.435}
{"smiles": "NCC1Cc2cccc(-c3cccc(C(F)(F)F)c3)c2O1", "note": "(racemic) [Example 69, (±)-1-{7-[3-(trifluoromethyl)phenyl]-2,3-dihydro-1-benzofuran-2-yl}methanamine]", "Ki": 0.096}
{"smiles": "CNCC1Cc2cc(-c3ccc(C)cc3)cc(F)c2O1", "note": "(racemic) [Example 538, (±)-{7-fluoro-5-[4-methylphenyl]-2,3-dihydro-1-benzofuran-2-yl}methyl)methylamine]", "Ki": 0.38}
{"smiles": "COc1ccc2c(c1)OC(CN)C2", "note": "(racemic) [Example 30, (±)-1-(6-methoxy-2,3-dihydro-1-benzofuran-2-yl)methanamine]", "Ki": 0.191}
{"smiles": "CNCC1Cc2cc(-c3ccccc3)cc(-c3ccccc3F)c2O1", "note": "(racemic) [Example 508, (±)-{[7-(2-fluorophenyl)-5-phenyl-2,3-dihydro-1-benzofuran-2-yl]methyl}methylamine]", "Ki": 1.8}
{"smiles": "NCC1Cc2ccc(-c3ccccc3)cc2O1", "note": "(racemic) [Example 31, (±)-(6-phenyl-2,3-dihydro-1-benzofuran-2-yl)methanamine]", "Ki": 1.37}
{"smiles": "CNCC1Cc2cc(-c3ccccc3)cc(-c3cccc(Cl)c3)c2O1", "note": "(racemic) [Example 506, (±)-{[7-(3-chlorophenyl)-5-phenyl-2,3-dihydro-1-benzofuran-2-yl]methyl}methylamine]", "Ki": 1.6}
{"smiles": "Cc1cccc(-c2cccc3c2OC(CN)C3)c1", "note": "(racemic) [Example 41, (±)-1-[7-(3-methylphenyl)-2,3-dihydro-1-benzofuran-2-yl]methanamine]", "Ki": 0.025}
{"smiles": "NCC1Cc2cccc(Nc3ccccc3F)c2O1", "note": "(racemic) [Example 194, (±)-N-[2-(aminomethyl)-2,3-dihydro-1-benzofuran-7-yl]-N-(2-fluorophenyl)amine]", "Ki": 0.127}
{"smiles": "NCC1Cc2cccc(Nc3cc(Cl)cc(Cl)c3)c2O1", "note": "(racemic) [Example 189, (±)-N-[2-(aminomethyl)-2,3-dihydro-1-benzofuran-7-yl]-N-(3,5-dichlorophenyl)amine]", "Ki": 0.363}
{"smiles": "NCC1Cc2c(cccc2-c2ccccc2C(F)(F)F)O1", "note": "(single isomer, unassigned; (+)) [Example 124, (+)-1-{4-[2-(trifluoromethyl)phenyl]-2,3-dihydro-1-benzofuran-2-yl}methanamine]", "Ki": 0.053}
{"smiles": "NCC1Cc2ccc(Cl)c(-c3ccccc3Cl)c2O1", "note": "(racemic) [Example 400, (±)-{[6-chloro-7-(2-chlorophenyl)-2,3-dihydro-1-benzofuran-2-yl]methyl}amine]", "Ki": 0.0005}
{"smiles": "COc1ccccc1-c1cc(C(F)(F)F)cc2c1OC(CN)C2", "note": "(racemic) [Example 316, (±)-{[5-(trifluoromethyl)-7-(2-methoxyphenyl)-2,3-dihydro-1-benzofuran-2-yl]methyl}amine]", "Ki": 0.064}
{"smiles": "CNCC1Cc2cc(-c3ccccc3)cc(-c3ccc(C)cc3)c2O1", "note": "(racemic) [Example 513, (±)-{[7-(4-methylphenyl)-5-phenyl-2,3-dihydro-1-benzofuran-2-yl]methyl}methylamine]", "Ki": 1.15}
{"smiles": "Cc1cccc(C)c1-c1cccc2c1CC(CN)O2", "note": "(single isomer, unassigned; (-)) [Example 127, (−)-1-[4-(2,6-dimethylphenyl)-2,3-dihydro-1-benzofuran-2-yl]methanamine]", "Ki": 0.02}
{"smiles": "CNCC1Cc2cc(-c3ccccc3)cc(-c3ccc(OC)cc3)c2O1", "note": "(racemic) [Example 516, (±)-{[7-(4-methoxyphenyl)-5-phenyl-2,3-dihydro-1-benzofuran-2-yl]methyl}methylamine]", "Ki": 1.58}
{"smiles": "NCC1Cc2c(F)ccc(-c3ccccc3)c2O1", "note": "(racemic) [Example 98, (±)-1-(4-fluoro-7-phenyl-2,3-dihydro-1-benzofuran-2-yl)methanamine]", "Ki": 0.06}
{"smiles": "NCC1Cc2cc(C(F)(F)F)cc(-c3cccc(F)c3F)c2O1", "note": "(racemic) [Example 329, (±)-{[7-(2,3-difluorophenyl)-5-(trifluoromethyl)-2,3-dihydro-1-benzofuran-2-yl]methyl}amine]", "Ki": 0.087}
{"smiles": "COc1ccccc1-c1cc(F)c2c(c1)CC(CN)O2", "note": "(racemic) [Example 379, (±)-{[7-fluoro-5-(2-methoxyphenyl)-2,3-dihydro-1-benzofuran-2-yl]methyl}amine]", "Ki": 0.453}
{"smiles": "CNCC1Cc2cc(-c3ccccc3)cc(-c3ccccc3Cl)c2O1", "note": "(racemic) [Example 505, (±)-{[7-(2-chlorophenyl)-5-phenyl-2,3-dihydro-1-benzofuran-2-yl]methyl}methylamine]", "Ki": 0.371}
{"smiles": "NCC1Cc2c(cccc2-c2ccccc2)O1", "note": "(single isomer, unassigned; (-)) [Example 3, (−)-1-(4-phenyl-2,3-dihydro-1-benzofuran-2-yl)methanamine]", "Ki": 0.204}
{"smiles": "CNCC1Cc2cc(-c3ccccc3)cc(-c3ccccc3C)c2O1", "note": "(racemic) [Example 511, (±)-{[7-(2-methylphenyl)-5-phenyl-2,3-dihydro-1-benzofuran-2-yl]methyl}methylamine]", "Ki": 0.248}
{"smiles": "NCC1Cc2cc(-c3ccccc3Cl)cc(F)c2O1", "note": "(racemic) [Example 376, (±)-{[7-fluoro-5-(2-chlorophenyl)-2,3-dihydro-1-benzofuran-2-yl]methyl}amine]", "Ki": 0.088}
{"smiles": "CNCC1Cc2cc(-c3cccc(C)c3)cc(F)c2O1", "note": "(racemic) [Example 533, (±)-{7-fluoro-5-[3-methylphenyl]-2,3-dihydro-1-benzofuran-2-yl}methyl)methylamine]", "Ki": 1.52}
{"smiles": "COc1ccc(-c2cccc3c2OC(CN)C3)c(OC)c1", "note": "(single isomer, unassigned; (+)) [Example 145, (+)-1-[7-(2,4-dimethoxyphenyl)-2,3-dihydro-1-benzofuran-2-yl]methanamine]", "Ki": 0.091}
{"smiles": "COc1cc2c(c(-c3ccccc3C)c1)OC(CN)C2", "note": "(racemic) [Example 358, (±)-{[7-(2-methylphenyl)-5-methoxy-2,3-dihydro-1-benzofuran-2-yl]methyl}amine]", "Ki": 0.007}
{"smiles": "NCC1Cc2cccc(Nc3ccc(F)cc3)c2O1", "note": "(racemic) [Example 178, (±)-N-[2-(aminomethyl)-2,3-dihydro-1-benzofuran-7-yl]-N-(4-fluorophenyl)amine]", "Ki": 0.31}
{"smiles": "CC1(CN)Cc2cc(Cl)cc(-c3ccsc3)c2O1", "note": "(racemic) [Example 113, (±)-(5-chloro-2-methyl-7-thien-3-yl-2,3-dihydro-1-benzofuran-2-yl)methylamine]", "Ki": 0.13}
{"smiles": "CNCC1Cc2cc(C(F)(F)F)cc(-c3cccc(F)c3)c2O1", "note": "(racemic) [Example 520, (±)-N-methyl-1-[7-(3-fluorophenyl)-5-(trifluoromethyl)-2,3-dihydro-1-benzofuran-2-yl]methanamine]", "Ki": 0.372}
{"smiles": "CC(C)(C)CCc1cccc2c1OC(CN)C2", "note": "(racemic) [Example 118, (±)-1-[7-(3,3-dimethylbutyl)-2,3-dihydro-1-benzofuran-2-yl]methanamine]", "Ki": 0.319}
{"smiles": "CNCC1Cc2cc(C(F)(F)F)cc(-c3cccc(C)c3)c2O1", "note": "(racemic) [Example 519, (±)-N-methyl-1-[7-(3-methylphenyl)-5-(trifluoromethyl)-2,3-dihydro-1-benzofuran-2-yl]methanamine]", "Ki": 0.488}
{"smiles": "CNCC1Cc2cc(-c3cccc(OC)c3)cc(F)c2O1", "note": "(racemic) [Example 537, (±)-{7-fluoro-5-[3-methoxyphenyl]-2,3-dihydro-1-benzofuran-2-yl}methyl)methylamine]", "Ki": 1.69}
{"smiles": "Cc1cccc(-c2cc(Cl)cc3c2OC(CN)C3)c1", "note": "(racemic) [Example 88, (±)-1-[5-chloro-7-(3-methylphenyl)-2,3-dihydro-1-benzofuran-2-yl]methanamine]", "Ki": 0.048}
{"smiles": "NCC1Cc2cc(Cl)cc(-c3ccsc3)c2O1", "note": "(single isomer, unassigned; (+)) [Example 92, (+)-(5-chloro-7-thien-3-yl-2,3-dihydro-1-benzofuran-2-yl)methylamine]", "Ki": 0.062}
{"smiles": "COc1cccc(-c2cc(C(F)(F)F)cc3c2OC(CN)C3)c1", "note": "(racemic) [Example 321, (±)-{[5-(trifluoromethyl)-7-(3-methoxyphenyl)-2,3-dihydro-1-benzofuran-2-yl]methyl}amine]", "Ki": 0.059}
{"smiles": "CNCC1Cc2cc(-c3ccc(Cl)cc3)cc(F)c2O1", "note": "(racemic) [Example 539, (±)-{7-fluoro-5-[4-chlorophenyl]-2,3-dihydro-1-benzofuran-2-yl}methyl)methylamine]", "Ki": 0.209}
{"smiles": "NCC1Cc2cccc(-c3ccccc3F)c2O1", "note": "(single isomer, unassigned; (-)) [Example 52, (−)-1-[7-(2-fluorophenyl)-2,3-dihydro-1-benzofuran-2-yl]methanamine]", "Ki": 0.013}
